From patent US11299501B2 (BRISTOL-MYERS SQUIBB COMPANY, priority 2017, dated 2022) come the findings set out here.

Format in all cases: cell-based
The target in one experiment is T1, human TLR7 (Homo sapiens, UniProt Q9NYK1).
T1 construct: host or cells: HEK-Blue cells
T1 sequence (Q9NYK1 27-1049): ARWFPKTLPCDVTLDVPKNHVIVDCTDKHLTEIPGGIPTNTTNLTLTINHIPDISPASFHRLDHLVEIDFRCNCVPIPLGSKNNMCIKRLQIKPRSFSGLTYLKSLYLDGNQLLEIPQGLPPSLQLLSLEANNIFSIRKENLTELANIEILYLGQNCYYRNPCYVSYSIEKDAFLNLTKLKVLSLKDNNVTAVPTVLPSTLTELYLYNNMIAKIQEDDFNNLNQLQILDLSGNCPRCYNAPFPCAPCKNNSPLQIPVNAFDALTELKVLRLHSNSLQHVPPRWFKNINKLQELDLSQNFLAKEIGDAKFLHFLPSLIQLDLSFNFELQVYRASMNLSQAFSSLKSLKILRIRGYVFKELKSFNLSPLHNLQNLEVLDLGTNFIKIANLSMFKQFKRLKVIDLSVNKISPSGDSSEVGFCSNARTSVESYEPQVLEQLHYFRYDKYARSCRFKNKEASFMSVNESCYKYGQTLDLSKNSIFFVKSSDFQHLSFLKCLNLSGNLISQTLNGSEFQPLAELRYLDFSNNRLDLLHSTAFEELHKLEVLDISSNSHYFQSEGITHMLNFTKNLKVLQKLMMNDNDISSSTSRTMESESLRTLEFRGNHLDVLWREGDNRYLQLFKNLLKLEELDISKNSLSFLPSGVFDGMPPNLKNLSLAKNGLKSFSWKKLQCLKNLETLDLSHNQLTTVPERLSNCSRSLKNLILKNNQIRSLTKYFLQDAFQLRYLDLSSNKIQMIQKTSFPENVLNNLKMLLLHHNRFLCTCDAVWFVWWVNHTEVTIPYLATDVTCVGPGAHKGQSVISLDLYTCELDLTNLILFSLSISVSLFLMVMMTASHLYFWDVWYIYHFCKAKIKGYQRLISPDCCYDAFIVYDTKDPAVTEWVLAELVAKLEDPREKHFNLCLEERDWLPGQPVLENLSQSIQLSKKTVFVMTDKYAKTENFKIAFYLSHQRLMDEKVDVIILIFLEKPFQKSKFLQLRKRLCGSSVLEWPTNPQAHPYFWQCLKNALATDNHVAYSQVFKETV
As to the kind of experiment: TLR7 inhibition reporter assay (HEK-Blue SEAP). The following applies: cells overexpressing human TLR7, SEAP reporter, stimulated with gardiquimod 7.5 μM, 22 hour incubation. An outline of the steps: (§1)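 HEK-Blue cells expressing human TLR7, TLR8 or TLR9 with NF-κB/AP-1-driven SEAP reporter pre-treated 30 min at room temperature with compound (0.05 nM–50 μM), then stimulated with gardiquimod 7.5 μM (TLR7), R848 15.9 μM (TLR8) or ODN2006 5 nM (TLR9). SEAP read after 22 h at 37 °C; % inhibition relative to agonist+DMSO and reference-inhibitor wells.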

Another experiment deals with T2, human TLR8 (Homo sapiens, UniProt Q9NR97).
T2 construct: host or cells: HEK-Blue cells
T2 sequence (Q9NR97 27-1041): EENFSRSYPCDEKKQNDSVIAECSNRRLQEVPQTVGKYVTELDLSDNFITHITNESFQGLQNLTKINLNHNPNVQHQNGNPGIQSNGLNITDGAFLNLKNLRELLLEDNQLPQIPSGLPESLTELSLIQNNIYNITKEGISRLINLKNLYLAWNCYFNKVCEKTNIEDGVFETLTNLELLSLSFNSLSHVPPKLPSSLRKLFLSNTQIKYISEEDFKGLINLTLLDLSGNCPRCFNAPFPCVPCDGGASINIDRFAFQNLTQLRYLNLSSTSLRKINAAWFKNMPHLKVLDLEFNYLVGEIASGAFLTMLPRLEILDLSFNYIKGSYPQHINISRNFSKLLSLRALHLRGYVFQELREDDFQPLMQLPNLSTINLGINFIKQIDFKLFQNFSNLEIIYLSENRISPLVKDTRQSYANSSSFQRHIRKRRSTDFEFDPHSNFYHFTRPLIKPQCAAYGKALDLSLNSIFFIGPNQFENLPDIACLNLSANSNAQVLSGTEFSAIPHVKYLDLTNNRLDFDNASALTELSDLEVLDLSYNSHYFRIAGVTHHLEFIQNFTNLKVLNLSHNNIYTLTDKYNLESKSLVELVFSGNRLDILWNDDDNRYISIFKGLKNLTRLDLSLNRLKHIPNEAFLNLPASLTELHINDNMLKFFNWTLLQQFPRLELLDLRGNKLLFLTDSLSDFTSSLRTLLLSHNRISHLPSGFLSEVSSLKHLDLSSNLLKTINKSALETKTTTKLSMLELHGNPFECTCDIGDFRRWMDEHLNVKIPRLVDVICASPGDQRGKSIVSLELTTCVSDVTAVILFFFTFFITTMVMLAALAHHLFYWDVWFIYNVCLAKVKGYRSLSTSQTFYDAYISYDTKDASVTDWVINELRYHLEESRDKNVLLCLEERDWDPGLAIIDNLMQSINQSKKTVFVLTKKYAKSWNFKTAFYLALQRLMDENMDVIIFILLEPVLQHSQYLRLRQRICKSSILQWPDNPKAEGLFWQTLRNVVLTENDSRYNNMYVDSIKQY
As to the kind of experiment: TLR8 inhibition reporter assay (HEK-Blue SEAP). The following applies: cells overexpressing human TLR8, SEAP reporter, stimulated with R848 15.9 μM, 22 hour incubation. An outline of the steps: as §1
Background: Reporter assays use an easily measured gene product as a stand-in for the process of interest.

In another experiment the target is T3, human TLR9 (Homo sapiens, UniProt Q9NR96).
T3 construct: host or cells: HEK-Blue cells
T3 sequence (Q9NR96 26-1032): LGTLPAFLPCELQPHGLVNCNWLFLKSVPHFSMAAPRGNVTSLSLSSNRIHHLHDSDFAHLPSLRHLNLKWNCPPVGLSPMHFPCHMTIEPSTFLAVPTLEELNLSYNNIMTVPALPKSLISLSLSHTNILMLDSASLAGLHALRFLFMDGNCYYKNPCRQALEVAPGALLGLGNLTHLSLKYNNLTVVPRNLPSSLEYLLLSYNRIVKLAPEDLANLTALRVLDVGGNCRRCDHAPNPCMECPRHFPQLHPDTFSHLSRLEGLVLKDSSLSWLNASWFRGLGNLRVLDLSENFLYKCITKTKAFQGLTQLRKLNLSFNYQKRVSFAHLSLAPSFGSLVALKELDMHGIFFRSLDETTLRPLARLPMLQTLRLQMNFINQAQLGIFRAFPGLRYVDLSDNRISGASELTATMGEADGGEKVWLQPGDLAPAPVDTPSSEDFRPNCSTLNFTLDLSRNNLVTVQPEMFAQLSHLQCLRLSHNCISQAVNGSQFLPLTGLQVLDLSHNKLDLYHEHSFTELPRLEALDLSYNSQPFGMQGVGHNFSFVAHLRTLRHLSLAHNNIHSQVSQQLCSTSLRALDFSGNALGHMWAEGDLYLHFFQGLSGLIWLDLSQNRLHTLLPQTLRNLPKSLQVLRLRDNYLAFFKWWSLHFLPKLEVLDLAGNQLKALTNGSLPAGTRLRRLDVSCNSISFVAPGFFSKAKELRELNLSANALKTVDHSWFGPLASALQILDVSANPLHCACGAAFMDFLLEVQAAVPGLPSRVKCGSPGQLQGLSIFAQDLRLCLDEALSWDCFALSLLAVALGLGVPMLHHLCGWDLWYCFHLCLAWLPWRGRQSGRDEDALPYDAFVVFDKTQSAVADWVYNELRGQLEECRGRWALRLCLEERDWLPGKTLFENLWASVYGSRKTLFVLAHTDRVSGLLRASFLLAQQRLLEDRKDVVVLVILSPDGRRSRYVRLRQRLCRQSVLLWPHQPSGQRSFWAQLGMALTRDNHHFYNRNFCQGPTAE
As to the kind of experiment: TLR9 inhibition reporter assay (HEK-Blue SEAP). The following applies: cells overexpressing human TLR9, SEAP reporter, stimulated with ODN2006 5 nM, 22 hour incubation. An outline of the steps:
as §1

As to `Cc1cc(-c2[nH]c3cnc(C4CCN(C)CC4)nc3c2C(C)C)cn(C)c1=O` [Example 34, 5-(7-isopropyl-2-(1-methylpiperidin-4-yl)-5H-pyrrolo[3,2-d]pyrimidin-6-yl)-1,3-dimethylpyridin-2(1H)-one], the IC50 (in general, the concentration that gives 50% inhibition) at human TLR7 was less than 100 nM; against human TLR8 it was less than 100 nM; at human TLR9, 1000 to 50000 nM.
With `Cc1cc(-c2[nH]c3cnc(C4CCN(CC(C)(C)O)CC4)nc3c2C(C)C)cn2ncnc12` [Example 20, 1-(4-(7-isopropyl-6-(8-methyl-[1,2,4]triazolo[1,5-a]pyridin-6-yl)-5H-pyrrolo[3,2-d]pyrimidin-2-yl)piperidin-1-yl)-2-methylpropan-2-ol], the IC50 was less than 100 nM against human TLR7, less than 100 nM on human TLR8 and 1000 to 50000 nM against human TLR9.
With `Cc1c(-c2[nH]c3cnc(C4CCN(C(=O)CN(C)C)CC4)nc3c2C(C)C)cn2ncnc2c1C` [Example 28, 1-(4-(6-(7,8-dimethyl-[1,2,4]triazolo[1,5-a]pyridin-6-yl)-7-isopropyl-5H-pyrrolo[3,2-d]pyrimidin-2-yl)piperidin-1-yl)-2-(dimethylamino)ethan-1-one], the concentration for half-maximal inhibition (IC50) is less than 100 nM on human TLR7, less than 100 nM at human TLR8 and 1000 to 50000 nM against human TLR9.
On to `CCc1c(-c2ccc(OC)c(OC)c2)[nH]c2cnc(-c3nnc(CCNC)o3)nc12` [Example 38, 2-(5-(6-(3,4-dimethoxyphenyl)-7-ethyl-5H-pyrrolo[3,2-d]pyrimidin-2-yl)-1,3,4-oxadiazol-2-yl)-N-methylethan-1-amine], for which the half-inhibitory concentration (IC50) against human TLR7 lay within 1000 to 50000 nM; at human TLR8, 100 to 1000 nM; on human TLR9, 1000 to 50000 nM.
For `CCc1c(-c2ccc(OC)c(OC)c2)[nH]c2cnc(-c3nnc(CCN(C)C)o3)nc12` [Example 48, 2-(5-(6-(3,4-dimethoxyphenyl)-7-ethyl-5H-pyrrolo[3,2-d]pyrimidin-2-yl)-1,3,4-oxadiazol-2-yl)-N,N-dimethylethan-1-amine], the half-inhibitory concentration (IC50) lay in the range of 1000 to 50000 nM at human TLR7, 100 to 1000 nM at human TLR8 and 1000 to 50000 nM against human TLR9.
As to `COc1cc(-c2[nH]c3cnc(C4CCN(CC#N)CC4)nc3c2C(C)C)cn2ncnc12` [Example 59], the half-inhibitory concentration (IC50) against human TLR7 was less than 100 nM; at human TLR8 it was less than 100 nM; against human TLR9 it was 100 to 1000 nM.
Take `COc1ccc(-c2[nH]c3cnc(C4CCN(C(=O)CN(C)C)CC4)nc3c2C(C)C)cc1OC` [Example 18, 1-(4-(6-(3,4-dimethoxyphenyl)-7-isopropyl-5H-pyrrolo[3,2-d]pyrimidin-2-yl)piperidin-1-yl)-2-(dimethylanino)ethan-1-one]: the half-maximal inhibitory concentration (IC50) against human TLR7 is less than 100 nM; at human TLR8, 100 to 1000 nM; at human TLR9, 100 to 1000 nM.
For `CCc1c(-c2ccc(OC)c(OC)c2)[nH]c2cnc(-c3nnc(C[C@H]4CCCN4)o3)nc12` [Example 47, (R)-2-(6-(3,4-dimethoxyphenyl)-7-ethyl-5H-pyrrolo[3,2-d]pyrimidin-2-yl)-5-(pyrrolidin-2-ylmethyl)-1,3,4-oxadiazole], the results for the half-maximal inhibitory concentration (IC50) against human TLR7, against human TLR8 and against human TLR9 were 1000 to 50000 nM, 100 to 1000 nM and 1000 to 50000 nM, respectively.
Regarding `Cc1cc(-c2[nH]c3cnc(C4CCN(C5CCOC5)CC4)nc3c2C(C)C)cn(C)c1=O` (stereo not drawn) [Example 12, 5-(7-isopropyl-2-(1-(tetrahydrofuran-3-yl)piperidin-4-yl)-5H-pyrrolo[3,2-d]pyrimidin-6-yl)-1,3-dirnethylpyridin-2(1H)-one], the IC50 is less than 100 nM against human TLR7, less than 100 nM against human TLR8 and 1000 to 50000 nM on human TLR9.
On to `Cc1c(-c2[nH]c3cnc(C4CCN(C5COC5)CC4)nc3c2C(C)C)cn2ncnc2c1C` [Example 19, 6-(7-isopropyl-2-(1-(oxetan-3-yl)piperidin-4-yl)-5H-pyrrolo[3,2-d]pyrimidin-6-yl)-7,8-dimethyl-[1,2,4]triazolo[1,5-a]pyridine], for which the IC50 against human TLR7 was less than 100 nM; at human TLR8, less than 100 nM; on human TLR9 it was 1000 to 50000 nM.
Regarding `CCc1c(-c2ccc(OC)c(OC)c2)[nH]c2ncc(C3CCN(C4CCN(C(C)C)CC4)CC3)nc12` [Example 5, 6-(3,4-ditnethoxyphenyl)-7-ethyl-2-(1′-isopropyl-[1,4′-bipiperidin]-4-yl)-5H-pyrrolo[2,3-b]pyrazine], the values for the 50% inhibitory concentration (IC50) at human TLR7, on human TLR8 and on human TLR9 were less than 100 nM, 100 to 1000 nM and 100 to 1000 nM, respectively.
Consider `CCc1c(-c2ccc(OC)c(OC)c2)[nH]c2cnc(-c3nnc([C@H]4CCCNC4)o3)nc12` [Example 40, (S)-2-(6-(3,4-dimethoxyphenyl)-7-ethyl-5H-pyrrolo[3,2-d]pyrimidin-2-yl)-5-(piperidin-3-yl)-1,3,4-oxadiazole], for which the half-maximal inhibitory concentration (IC50) against human TLR7, on human TLR8 and on human TLR9 was 100 to 1000 nM in each case.
